These results are taken from US20150140005A1, “Methods and Uses for Proprotein Convertase Subtilisin Kexin 9 (PCSK9) Inhibitors” (Cyon Therapeutics Inc., priority 2012, published 2015).

The test system of one experiment is LPS treated LDLR−/− mice. The experiment in a line: Responses to LPS treatment (lipopolysaccharide induced systemic inflammation) in LDLR−/− mice treated with saline or berberine. The experiment is classed as in vivo. Here is the method:
Healthy mice had activity level, body temperature, blood pressure, and cardiac function (echocardiography) assessed at baseline (time 0) as detailed below. Mice were then injected intra-peritoneally with LPS (20 mg/kg, E. coli strain 01 II: B4, Sigma™, St. Louis, Mo.). This dose was determined from previous experiments where, in the background strain of C57BL/6 mice, LPS 20 mg/kg delivered intra-peritoneally was the lowest dose, which was lethal in all cases within 12 hours^24. Then activity level and temperature were measured every hour for six hours. At six hours blood pressure was measured by invasive arterial cannulation and cardiac function (echocardiography) was assessed again.
Activity Index: Mice were observed during 2 minutes for posture and activity. 0 (normal) denotes that there are no times with a hunched posture, and the mouse had spontaneous rapid movements interspersed with eating and drinking. 1 (mild) is occasional brief (5-20 seconds) hunched posture, which spontaneously reverted to normal with ongoing spontaneous rapid movements interspersed with eating and drinking. 2 (mild-moderate) was longer (>20 seconds) in the hunched posture which spontaneously reverted to normal with ongoing spontaneous rapid movements interspersed with eating and drinking. 3 (moderate-severe) was nearly continual hunched posture with movement only when subjected to strong external stimuli. 4 (severe) was continual hunched posture without movement.
Temperature: Temperature was measured hourly using an infra-red thermometer (IR-101 La Crosse Technology, La Crosse USA)) held 2-3 mm from the abdomen.
Blood Pressure: At baseline (time 0) mean arterial blood pressure was measured using a non-invasive tail cuff (CODA 2™, Kent Scientific, Torrington, USA). Six hours after LPS injection, mice were anesthetized using inhaled isofluorane (1-3%). Following a small laparatomy, the abdominal aorta was punctured using a 27 gauge needle then a number 2 French micromanometer catheter (Mikro-tip SPR-838™, Millar Instruments Inc., Houston, Tex.) was inserted into the aorta. Mean arterial pressure was derived using analysis software (PVAN 2.9™, Millar Instruments Inc.).
Echocardiography: Mice were lightly anaesthetized using inhaled isofluorane (1-3%) and placed on a warming blanket. M-mode echocardiograms (ECHO) were targeted from 2D echos obtained using the Vevo 770 ECHO (Visualsonics™, Toronto, ON, Canada) operating at a 120 Hz frame rate. Left parasternal 2D left ventricular cross-sectional echocardiographic images were obtained. The position and angle of the echo transducer is maintained by directing the beam just off the tip of the anterior leaflet of the mitral valve and by maintaining internal anatomic landmarks constant. All measurements are taken from M-mode traces at end-expiration. Left ventricular internal dimensions were measured at end-diastole (defined as the onset of the QRS complex in lead II of the simultaneously obtained electrocardiogram) and at end-systole (defined as minimum internal ventricular dimension).
This is consistent with the hypothesis that the benefit derived from the inhibition of PCSK9 is the result of increased availability of LDLR and a subsequent reduction in plasma LDL.

The subject of a further experiment is PCSK9. To be noted: intravenous infusion, as early as 8 hours after injection, non-human primates; cited from earlier work.
Where [1] appears, read: LDLR−/− mice, 6 hrs after LPS, median (95% CI), n = 4.
The mark [2] stands for this setting: LDLR−/− mice, baseline, median (95% CI), n = 4.

As to `COc1ccc2cc3[n+](cc2c1OC)CCc1cc2c(cc1-3)OCO2` [Berberine, berberine], in the experiment on LPS treated LDLR−/− mice (setting [1]), the “Activity 6 hrs LPS” value was 0 (−0.8-0.3), the “EF 6 hrs LPS” value was 26.0 (23.0-29.0) and the “MAP 6 hrs LPS” value is listed as 53 (52-54). Also, in the experiment on LPS treated LDLR−/− mice (setting [2]), the “Activity Baseline” value is 0 (0-0), the “MAP Baseline” value was 109 (93-125)^ and the “Temp. Baseline” value was 37.0 (36.2-37.9). The “Differences between saline and berberine mice in responses to LPS” value in the experiment on LPS treated LDLR−/− mice (LPS treated LDLR−/− mice, berberine vs saline) is “minimal differences”.

B1: AMG145: Amgen monoclonal antibody specific for the catalytic domain of PCSK9 (antibody, chains of the INN, looked up, V domains shown)
VH: EVQLVQSGAEVKKPGASVKVSCKASGYTLTSYGISWVRQAPGQGLEWMGWVSFYNGNTNYAQKLQGRGTMTTDPSTSTAYMELRSLRSDDTAVYYCARGYGMDVWGQGTTVTVSS
VL: ESALTQPASVSGSPGQSITISCTGTSSDVGGYNSVSWYQQHPGKAPKLMIYEVSNRPSGVSNRFSGSKSGNTASLTISGLQAEDEADYYCNSYTSTSMVFGGGTKLTVL
For B1, the “Circulating LDL-C levels” value in the experiment on PCSK9 is “significant reduction”.
